SMILES strings stand for the structures. pIC50: −log10 of the molar value. A value given as a limit tells only on which side of the number the result lay.

This assay is described as follows: Inhibition of HTLV1 protease assessed as decrease in substrate concentration by HPLC analysis. Details: species or system Human T-cell leukemia virus type I.
With `CC[C@@H](C)[C@@H](NC(=O)[C@@H](CC(C)C)[C@H](O)C[C@H]1CCCN1C(=O)NCc1ccccc1)C(=O)N[C@@H](C(=O)N1CCC[C@@H]1C(=O)N1CCC[C@@H]1C(N)=O)C(C)C`, the negative-log IC50 (pIC50) is 3.80. In the case of `CC[C@H](C)[C@@H](NC[C@H](O)[C@@H](CC(C)C)NC(C)=O)C(=O)N[C@@H](C(=O)N1CCC[C@@H]1C(N)=O)C(C)C` it was less than 2.00; in that of `CC[C@@H](C)[C@@H](NC(=O)[C@H](CC(C)C)[C@H](O)C[C@H]1CCCN1C(=O)NCc1ccccc1)C(=O)N[C@@H](C(=O)N1CCC[C@@H]1C(=O)N1CCC[C@@H]1C(N)=O)C(C)C`, 3.46; in that of `CC[C@H](C)[C@@H](NC[C@H](O)[C@@H](CC(C)C)NC(=O)[C@H]1CCCN1C(C)=O)C(=O)N[C@@H](C(=O)N1CCC[C@@H]1C(N)=O)C(C)C`, less than 2.00. As for `CC[C@@H](C)[C@@H](NC(=O)[C@@H](CC(C)C)[C@@H](O)C[C@H]1CCCN1C(=O)NCc1ccccc1)C(=O)N[C@@H](C(=O)N1CCC[C@@H]1C(=O)N1CCC[C@@H]1C(N)=O)C(C)C`, the pIC50 is 3.26.

Take `CC[C@@H](C)[C@@H](NC(=O)[C@H](CC(C)C)[C@@H](O)C[C@H]1CCCN1C(=O)NCc1ccccc1)C(=O)N[C@@H](C(=O)N1CCC[C@@H]1C(=O)N1CCC[C@@H]1C(N)=O)C(C)C`: the pIC50 is 2.82.

The pIC50 is −log10 of the IC50, conventionally taken in molar units.

The record behind these values is ChEMBL document CHEMBL1156962, “Evaluation of retro-inverso modifications of HTLV-1 protease inhibitors containing a hydroxyethylamine isoster” (Bioorg Med Chem, 2010).
